Source: patent US7772268B2, “Diacyl indazole derivatives as lipase and phospholipase inhibitors” (Sanofi-Aventis, priority 2005, dated 2010)

Key:
[1] = target: T1, endothelial lipase (EL) (Homo sapiens, UniProt Q9Y5X9); experiment: EL inhibition assay (conditioned medium of recombinant cell lines, Bodipy phospholipid substrate); type: biochemical; details: EL from conditioned medium (CHO, HEK293); 37° C., 60 minutes
T1 construct: made in house; host or cells: recombinant cell lines CHO, HEK293 (conditioned medium, concentrated)
T1 sequence (Q9Y5X9 21-500): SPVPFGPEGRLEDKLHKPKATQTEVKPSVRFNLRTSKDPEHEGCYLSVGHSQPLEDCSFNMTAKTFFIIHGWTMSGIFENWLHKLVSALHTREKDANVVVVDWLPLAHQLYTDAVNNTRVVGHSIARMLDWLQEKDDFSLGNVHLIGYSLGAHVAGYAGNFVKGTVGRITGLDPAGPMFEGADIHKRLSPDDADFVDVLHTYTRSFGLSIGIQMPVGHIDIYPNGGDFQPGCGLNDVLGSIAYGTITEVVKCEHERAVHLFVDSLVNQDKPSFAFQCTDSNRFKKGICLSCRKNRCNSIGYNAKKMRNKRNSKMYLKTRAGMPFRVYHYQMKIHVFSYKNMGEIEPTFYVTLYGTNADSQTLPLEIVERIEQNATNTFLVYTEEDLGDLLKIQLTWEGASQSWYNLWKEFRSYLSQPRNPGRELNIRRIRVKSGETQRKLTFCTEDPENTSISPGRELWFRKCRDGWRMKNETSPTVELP
Text: EL is released as secretory protein in high concentration into cell culture medium (conditioned medium) by recombinant cell lines (CHO, HEK293). This is employed as enzyme solution after concentration.
The phospholipase-specific substrate 1,2-bis(4,4-difluoro-5,7-dimethyl-4-bora-3a,4a-diaza-s-indacene-3-undecanoyl)-sn-glycero-3-phosphocholine, (manufacturer Molecular Probes) is used to characterize the enzymatic activity of endothelial lipase and the effect of inhibitors. Hydrolysis of the A1 ester linkage of this phospholipid by the enzyme liberates the fluorescent dye Bodipy which can be detected after separation by thin-layer chromatography on an HPTLC plate (silica gel 60, Merck) or directly in the reaction vessel by measuring the fluorescence.
The substrate solution is prepared by taking up 100 μg of 1,2-bis(4,4-difluoro-5,7-dimethyl-4-bora-3a,4a-diaza-s-indacene-3-undecanoyl)-sn-glycero-3-phospho-choline (manufacturer Molecular Probes), 2.4 mg of tripalmitin (Sigma) and 7.9 mg of DOP—choline (1,2-dioleoyl-sn-glycero-3-phosphocholine) in 393 μl of chloroform and then transferring 157 μl into a fresh reaction vessel. After evaporation of the solvent, the lipid mixture is dissolved in 4 ml of 200 mM TRIS-HCl, 150 mM sodium chloride, pH=7.4, by sonication twice. The subsequent enzymic reaction takes place at 37° C. for 60 minutes. For this purpose, 45 μl of the substrate solution are incubated with 1 μl of inhibitor of appropriate concentration (dissolved in DMSO, pure DMSO solution is used as control) and 5 μl of enzyme solution (conditioned medium). Then 3 μl of the assay mixture are loaded onto an HPTLC plate (silica gel 60, Merck), and the liberated fluorescent dye is separated for detection with an eluent (diethyl ether:petroleum benzene:acetic acid [78:22:1]). After evaporation of the eluent, the plate is read in a fluorescence scanner. An increased release of the fluorescent dye in the uninhibited reaction is to be observed as a measure of the enzymic activity.
The enzymatic activity is reduced as a function of the inhibitor concentration used, and the inhibitor concentration at which a half-maximum enzymatic activity is observed is called IC50.

[2] = target: T2, hormone sensitive lipase, HSL (Rattus norvegicus, UniProt P15304); experiment: HSL inhibition assay (partially purified HSL, [3H]trioleoylglycerol substrate); type: biochemical; details: partially purified HSL from rat fat cells; 37° C., 30 min
T2 construct: Isolated rat fat cells are obtained from epididymal adipose tissue; from tissue; host or cells: rat epididymal adipose tissue (isolated fat cells, Wistar rats)
T2 sequence (P15304 301-1068 limits assumed): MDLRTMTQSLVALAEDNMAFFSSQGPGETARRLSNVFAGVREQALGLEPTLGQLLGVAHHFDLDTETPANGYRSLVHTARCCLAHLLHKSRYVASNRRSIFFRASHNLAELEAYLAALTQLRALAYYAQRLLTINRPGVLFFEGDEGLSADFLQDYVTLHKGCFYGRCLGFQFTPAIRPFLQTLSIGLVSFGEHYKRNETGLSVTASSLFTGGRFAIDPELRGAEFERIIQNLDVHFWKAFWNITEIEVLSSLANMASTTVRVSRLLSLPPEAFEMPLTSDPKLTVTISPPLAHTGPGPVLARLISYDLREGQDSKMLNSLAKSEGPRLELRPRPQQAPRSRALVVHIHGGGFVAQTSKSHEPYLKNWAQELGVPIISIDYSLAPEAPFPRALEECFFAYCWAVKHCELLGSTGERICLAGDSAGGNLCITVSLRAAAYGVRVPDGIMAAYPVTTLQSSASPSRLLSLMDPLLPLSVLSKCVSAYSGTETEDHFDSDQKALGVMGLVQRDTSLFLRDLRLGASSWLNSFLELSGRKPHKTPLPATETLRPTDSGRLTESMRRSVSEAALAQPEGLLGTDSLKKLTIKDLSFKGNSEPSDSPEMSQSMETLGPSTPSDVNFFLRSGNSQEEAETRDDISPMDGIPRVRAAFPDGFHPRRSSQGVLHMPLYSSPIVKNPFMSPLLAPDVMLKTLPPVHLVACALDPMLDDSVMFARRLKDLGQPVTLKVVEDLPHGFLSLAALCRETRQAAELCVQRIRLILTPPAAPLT
Method: Preparation of the partially purified HSL:
Isolated rat fat cells are obtained from epididymal adipose tissue from untreated male rats (Wistar, 220-250 g) by collagenase treatment in accordance with published methods (e.g. S, Nilsson et al., Anal. Biochem. 158, 1986, 399-407; G. Fredrikson et al., J. Biol. Chem. 256, 1981, 6311-6320; H. Tornquist et al., J. Biol. Chem. 251, 1976, 813-819). The fat cells from 10 rats are washed three times by flotation with 50 ml of homogenization buffer ([…] Tris/HCl, pH 7.4, 0.25 M sucrose, 1 mM ETDA, 1 mM DTT, 10 μg/ml leupeptin, 10 μg/ml antipain, 20 μg/ml pepstatin) each time and finally taken up in 10 ml of homogenization buffer. The fat cells are homogenized in a Teflon-in-glass homogenizer (Braun-Melsungen) by 10 strokes at 1500 rpm and 15° C. The homogenate is centrifuged (Sorvall SM24 tubes, 5000 rpm, 10 min, 4° C.). The subnatant between the layer of fat at the top and the pellet is removed and the centrifugation is repeated. The subnatant resulting therefrom is centrifuged again (Sorvall SM24 tubes, 20 000 rpm, 45 min, 4° C.). […] After incubation at 4° C. for 60 min (shaking at intervals of 15 min), the mixture is centrifuged (Sorvall SM24 tubes, 3000 rpm, 10 min, 4° C.). The supernatant is adjusted to pH 5.2 by adding glacial acetic acid and is incubated at 4° C. for 30 min. The precipitates are collected by centrifugation (Sorvall SS34, 12 000 rpm, 10 min, 4° C.) and suspended in 2.5 ml of 20 mM Tris/HCl, pH 7.0, 1 mM EDTA, 65 mM NaCl, 13% sucrose, 1 mM DTT, 10 μg/ml leupeptin/pepstatin/antipain. The suspension is dialyzed against 25 mM Tris/HCl, pH 7.4, 50% glycerol, 1 mM DTT, 10 μg/ml leupeptin, pepstatin, antipain at 4° C. overnight and then loaded onto a hydroxiapatite column (0.1 g per 1 ml of suspension, equilibrated with 10 mM potassium phosphate, pH 7.0, 30% glycerol, 1 mM DTT). The column is washed with four volumes of equilibration buffer at a flow rate of 20 to 30 ml/h. The HSL is eluted with one volume of equilibration buffer containing 0.5 M potassium phosphate and then dialyzed (see above) and concentrated 5- to 10-fold by ultrafiltration (Amicon Diaflo PM 10 Filter) at 4° C. The partially purified HSL can be stored at −70° C. for 4 to 6 weeks.
To prepare the substrate, 25-50 μCi of [3H]trioleoylglycerol (in toluene), 6.8 μmol of unlabeled trioleoylglycerol and 0.6 mg of phospholipids (phosphatidylcholine/phosphatidylinositol 3:1 w/v) are mixed, dried with N2 and then taken up in 2 ml of 0.1 M KPi (pH 7.0) by ultrasound treatment (Branson 250, microtip, setting 1-2, 2×1 min with an interval of 1 min). After addition of 1 ml of KPi and renewed ultrasound treatment (4×30 sec on ice with intervals of 30 sec), 1 ml of 20% BSA (in KPi) is added (final concentration of trioleoylglycerol 1.7 mM). For the reaction, 100 μl of substrate solution are pipetted into 100 μl of HSL solution (HSL prepared as above, diluted in 20 mM KPi, pH 7.0, 1 mM EDTA, 1 mM DTT, 0.02% BSA, 20 μg/ml pepstatin, 10 μg/ml leupeptin) and incubated at 37° C. for 30 min. Addition of 3.25 ml of methanol/chloroform/heptane (10:9:7) and of 1.05 ml of 0.1 M K2CO3, 0.1 M boric acid (pH 10.5) is followed by thorough mixing and finally centrifugation (800×g, 20 min). After phase separation, one equivalent of the upper phase (1 ml) is removed and the radioactivity is determined by liquid scintillation measurement.
Substances are normally tested in four independent mixtures. The inhibition of the HSL enzymatic activity by a test substance is determined by comparing with an uninhibited control reaction. The IC50 is calculated from an inhibition plot with at least 10 concentrations of the test substance. The GRAPHIT, Elsevier-BIOSOFT software package is used to analyze the data.

| IC50 [2] | Molecule | IC50 [1] |
| --- | --- | --- |
|  | Cc1ccccc1CNC(=O)n1c(=O)c2ccccc2n1C(=O)N1CCC(C)CC1 [Example 12, 1-(4-Methylpiperidine-1-carbonyl)-3-oxo-1,3-dihydroindazole-2-carboxylic acid 2-methylbenzylamide] | 0.22 µM |
|  | 6-Chloro-3-oxo-3H-indazole-1,2-dicarboxylic acid bisbenzylamide [Example 11a] | 0.26 µM |
| 0.58 µM | Cc1cc(O)nc2c1c(OC(=O)N1CCC(C)CC1)nn2C(=O)N1CCC(C(F)(F)F)CC1 [Example 16, 6-Hydroxy-4-methyl-1-(4-trifluoromethylpiperidine-1-carbonyl)-1H-pyrazolo-[3,4-b]pyridin-3-yl 4-methylpiperidine-1-carboxylate] |  |
| 0.62 µM | O=C(N1CCN(c2ccccc2)CC1)n1c(=O)c2ccc(F)cc2n1C(=O)N1CCN(c2ccccc2)CC1 [Example 1b, 6-fluoro-1,2-bis(4-phenylpiperazine-1-carbonyl)-1,2-dihydroindazol-3-one] |  |
|  | CCCCCCNC(=O)Oc1nn(C(=O)NCCCCCC)c2cc(Cl)ccc12 [Example 10b, 6-chloro-1-hexylcarbamoyl-1H-indazol-3-yl hexylcarbamate] | 0.06 µM |
| 0.32 µM | O=C(Oc1nn(C(=O)N2CCN(c3ccccc3)CC2)c2cc(F)ccc12)N1CCN(c2ccccc2)CC1 [Example 1a, 6-Fluoro-1-(4-phenylpiperazine-1-carbonyl)-1H-indazol-3-yl 4-phenylpiperazine-1-carboxylate] |  |
|  | 6-Chloro-3-oxo-3H-indazole-1,2-dicarboxylic acid bishexylamide [Example 10a] | 0.05 µM |
| 1.15 µM | CC1CCN(C(=O)Oc2nn(C(=O)N3CCC(C)CC3)c3cc(F)ccc23)CC1 [Example 9b, 6-fluoro-1-(4-methylpiperidine-1-carbonyl)-1H-indazol-3-yl 4-methylpiperidine-1-carboxylate] |  |
|  | O=C(NCc1ccccc1)Oc1nn(C(=O)NCc2ccccc2)c2cc(Cl)ccc12 [Example 11b, 1-benzylcarbamoyl-6-chloro-1H-indazol-3-yl benzyl carbamate] | 1.47 µM |
| 1 µM | CC1CCN(C(=O)Oc2nn(C(=O)N3CCC(C(F)(F)F)CC3)c3cc(N)ccc23)CC1 [Example 14, 6-Amino-1-(4-trifluoromethylpiperidine-1-carbonyl)-1H-indazol-3-yl 4-methyl-piperidine-1-carboxylate] |  |
|  | Cc1ccccc1CNC(=O)n1c(=O)c2ccccc2n1C(=O)NCc1ccccc1C [Example 13, 3-Oxo-3H-indazole-1,2-dicarboxylic acid bis(2-methylbenzylamide)] | 0.84 µM |
| 1.11 µM | O=C(Oc1nn(C(=O)N2CCc3sccc3C2)c2cc(F)ccc12)N1CCc2sccc2C1 [Example 2, 1-(6,7-Dihydro-4H-thieno[3,2-c]pyridine-5-carbonyl)-6-fluoro-1H-indazol-3-yl 6,7-dihydro-4H-thieno[3,2-c]pyridine-5-carboxylate] |  |

| Molecule | IC50 [2] | IC50 [1] |
| --- | --- | --- |
| Cc1cc(O)nc2c1c(OC(=O)N1CCC(C(F)(F)F)CC1)nn2C(=O)N1CCN(C)CC1 [Example 15, 6-Hydroxy-4-methyl-1-(4-methylpiperazine-1-carbonyl)-1H-pyrazolo[3,4-b]pyridin-3-yl 4-trifluoromethylpiperidine-1-carboxylate] | 1.5 µM |  |
